Blank lines part the entries; values can stand above or below the molecule they belong to.
How the values were obtained:
HEK293 cells = experiment: Cell viability by intracellular ATP (CellTiter-GLO) in HEK293 cells; type: cell-based; settings: HEK293, 4-h treatment
Protocol: (§1) Either HEK293, PC-3 or PANC-1 cells were spun down at 1000 rpm for 5 min at room temperature. Supernatant was then discarded, and cells re-suspended to a density of to 220,000 cells per millilitre in Opti-MEM I cell media containing 0% FBS with no added red phenol. Then 90 μl of the cell re-suspension was added to the wells of a white opaque 96-well plate. Compounds were then titrated onto the 96-well plate using a suitable twofold dilution series from a 10× stock solution containing 10% v/v DMSO. Control wells were also treated with a 10% DMSO only stock solution to yield a final residual DMSO concentration of 1% v/v. The 96-well plates were then incubated for 4 h at 37 °C, with 5% CO2. Wells were then treated with a solution of Nano-Glo live substrate, which was prepared as per the manufacturer’s instructions. The plates were then shaken for 1 min at 22 °C and luminescence assessed after additional 50 min using an Envision Multi-Plate reader (Perkin-Elmer). Plates were then multiplexed with CellTiter-GLO 2.0 reagent (PROMEGA) and cellular viability determined according to the manufacturer’s instruction. NanoBit titration data was used to determine IC50 values for drug potency by fitting 4 parameter logistic curves using GraphPad Prism 7.0.

PC-3 cells = experiment: Cell viability by intracellular ATP (CellTiter-GLO) in PC-3 cells; type: cell-based; settings: NanoBit co-transfected PC-3 cells, 4 h
Protocol: as §1

[1] = test system: eIF4E S209 phosphorylation; experiment: AlphaScreen Surefire eIF4E S209 phosphorylation assay in PANC-1 cells; type: cell-based
Protocol: (§2) Ninety-six-well plates were seeded at 30,000 cells per well with non-transfected PC-3, PANC-1 or HKEK293 cells in DMEM with 10% FCS and incubated overnight. Cells were then washed with PBS and the media replaced with OPTI-MEM containing no serum. Cells were then treated with the indicated compounds. Controls were performed with DMSO vehicle treatments. Four hours post treatments, cells were lysed with 50 μl of passive lysis buffer (PerkinElmer) for 15 min and 10 μl of lysate from each well was transferred into a white bottom 384-well plate. GAPDH and pS209 eIF4E levels were assessed according to the manufacturer’s instructions (PerkinElmer) for each sample. Luminescence was measured using an Envision Multiplate reader (PerkinElmer).

[2] = test system: eIF4E S209 phosphorylation; experiment: AlphaScreen Surefire eIF4E S209 phosphorylation assay in PC-3 cells; type: cell-based; settings: PC3 cells, 4E-BP1 protein levels high, normalised to GAPDH, read-out: pEIF4E SureFire (IC50)
Protocol: as §2

[3] = test system: eIF4E:eIF4G^604–646 complex; experiment: NanoBit eIF4E:eIF4G^604–646 protein complementation assay in PC-3 cells; type: cell-based; settings: for Activity in NanoBit system: PC-3 cells, 4 h
Protocol: (§3) Twenty-four hours prior to transfection, cells (HEK293, PANC-1 or PC-3) were seeded at a cell density of 800,000 cells per well of a six-well plate (Thermo Fisher Scientific). Transfections in six-well plates were performed using Lipofectamine 3000 (Thermo Fisher Scientific) with 3 μg of the indicated plasmid vectors per well according to the manufacturer’s instructions. For knockdown experiment, siRNA Ctrl or 4EBP1 at a final concentration of 100 nM were included in the transfection mixture. Transfections utilising GFP and GFP-MYC contained 1 μg of each vector or empty vector, respectively. In the case of transfections utilising any of the 4EBP1 constructs described, only 0.5 μg of each vector or empty vector was used, respectively. After a 24- or 48-h (as indicated in the figure legends) incubation period, the medium was removed and cells were washed with PBS saline. Cells were then either lysed directly for immunoprecipitation experiments or were trypsinised and re-suspended in Opti-MEM media with 0% FCS to perform NanoBit and cell viability experiments in a 96-well format.
as §1

[4] = test system: eIF4E:eIF4G^604–646 complex; experiment: NanoBit eIF4E:eIF4G^604–646 protein complementation assay in PANC-1 cells; type: cell-based
Protocol: as §3
as §1, with “Wells were then treated with a solution of Nano-Glo live substrate, which was prepared as per the manufacturer’s instructions.” left out, “NanoBit titration data was used to determine IC50 values for drug potency by fitting 4 parameter logistic curves using GraphPad Prism 7.0.” left out

[5] = test system: eIF4E:eIF4G^604–646 complex; experiment: NanoBit eIF4E:eIF4G^604–646 protein complementation assay in HEK293 cells; type: cell-based; settings: for Extent of disruption of NanoBit signal / eIF4F complex: HEK293, relative to eIF4G YLL-LgBit binding control or maximal dose of Torin
Protocol: (§4) Opaque 96-well plates were seeded with 20,000 HEK293 cells per well in DMEM and 10% FCS. Transfections in 96-well plate format were performed using FUGENE6 (Roche) with 100 ng of the indicated plasmid vectors per well as outlined in the manufacturer’s instructions (Fig. 1). Twenty-four hours after transfection, the medium was replaced with 100 μl of Opti-MEM I cell media containing 0% FCS with no added red phenol (Thermo Fisher Scientific) and luminescence activity assayed (as outlined in “NanoBit and cell viability experiments” section). Transfections utilising 4EBP1 constructs were performed with either 50 ng of the indicated construct or empty vector.
as §3, §1

[6] = test system: full-length NanoLuc luciferase; experiment: Full-length NanoLuc luciferase counter-screen in HEK293 cells; type: cell-based; settings: HEK293 transfected with full-length NanoLuc
eIF4E-eIF4G interface = settings: published value; read-out: in vitro Kd; cited from earlier work
[7] = target: T1, eIF4E:eIF4G^604–646 complex (Homo sapiens, UniProt P06730); experiment: NanoBit eIF4E:eIF4G^604–646 protein complementation assay in HEK293 cells; type: cell-based; settings: HEK293, 4 h, normalised to DMSO and to full-length NanoLuc counter-screen; read-out: IC50, NanoBit eIF4E:eIF4G^604–646 signal
T1 construct: linked either to full-length eIF4E or the eIF4G^604–646 fragment; expressed in transfected cells; host or cells: HEK293
Protocol: as §4, §3, §1

[8] = HEK293, 4 h treatment, read-out: IC50, NanoBit eIF4E:eIF4G^604–646 signal

T1 sequence (P06730 2-217, one chain of several): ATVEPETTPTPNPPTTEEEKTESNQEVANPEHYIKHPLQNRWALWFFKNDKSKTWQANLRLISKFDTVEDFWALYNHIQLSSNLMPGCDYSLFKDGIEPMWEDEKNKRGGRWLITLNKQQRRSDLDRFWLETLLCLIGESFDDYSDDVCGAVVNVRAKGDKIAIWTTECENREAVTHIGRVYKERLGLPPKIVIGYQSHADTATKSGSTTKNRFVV

SMILES: CC(C)n1nc(-c2cc3cc(O)ccc3[nH]2)c2c(N)ncnc21 [PP242]
Effect on cell viability (intracellular ATP) (HEK293 cells): neither Rapamycin, Torin nor PP242 affected the cells adversely

SMILES: CCC(=O)N1CCN(c2ccc(-n3c(=O)ccc4cnc5ccc(-c6cnc7ccccc7c6)cc5c43)cc2C(F)(F)F)CC1 [Torin]
pEIF4E SureFire (IC50, μM) ([1]; PANC cells, 4E-BP1 protein levels low, normalised to GAPDH): No Inhibition | IC50 ([2]; Homo sapiens, PC-3): 100 ± 20 nM | IC50 ([3]; PC3 cells, 4E-BP1 protein levels high, read-out: NanoBit eIF4E:4G (IC50)): 20 ± 10 nM | Effect on cell viability (intracellular ATP) (HEK293 cells): neither Rapamycin, Torin nor PP242 affected the cells adversely | IC50 ([4]; 4E-BP1 protein levels low, read-out: NanoBit eIF4E:4G (IC50)): 130 ± 30 nM | IC50 [5, 8]: 60 ± 10 nM

SMILES: CC(C)NC[C@@H](C(=O)N1CCN(c2ncnc3c2[C@H](C)C[C@H]3O)CC1)c1ccc(Cl)cc1 [Ipasertib]
IC50 [5, 8]: 170 ± 24 nM

SMILES: O=C(O)c1ccc(N2C(=O)/C(=C\c3ccc(-c4ccc([N+](=O)[O-])cc4)o3)C=C2c2ccccc2)cc1 [4E1RCat]
Inhibition of full-length luciferase signal (counter-screen) [6]: Non-specific inhibition of the luciferase signal | Kd (eIF4E-eIF4G interface): 3200 nM | Effect on cell viability (intracellular ATP) (HEK293 cells): observed to have an effect | IC50 [7]: 600 ± 150 nM | Extent of disruption of NanoBit signal / eIF4F complex [5]: neither achieved complete disruption of the signal

SMILES: CC(C)Nc1cc(-c2c[nH]c(C(=O)N[C@H](CO)c3cccc(Cl)c3)c2)c(Cl)cn1 [Ulixertinib]
IC50 [5, 8]: 4700 ± 1800 nM

SMILES: O=C(O)C(Cc1ccccc1[N+](=O)[O-])=NNc1nc(-c2ccc(Cl)c(Cl)c2)cs1 (mixture of isomers) [4EGi-1]
Inhibition of full-length luciferase signal (counter-screen) [6]: Non-specific inhibition of the luciferase signal | Kd (eIF4E-eIF4G interface): 25000 nM | Effect on cell viability (intracellular ATP) (HEK293 cells): only 4ER1Cat was observed to have an effect | Extent of disruption of NanoBit signal / eIF4F complex [5]: neither achieved complete disruption of the signal

SMILES: CO[C@H]1C[C@@H]2CC[C@@H](C)[C@@](O)(O2)C(=O)C(=O)N2CCCC[C@H]2C(=O)O[C@H]([C@H](C)C[C@@H]2CC[C@@H](O)[C@H](OC)C2)CC(=O)[C@H](C)/C=C(\C)[C@@H](O)[C@@H](OC)C(=O)[C@H](C)C[C@H](C)/C=C/C=C/C=C/1C [Rapamycin]
Effect on cell viability (intracellular ATP) (HEK293 cells): neither Rapamycin, Torin nor PP242 affected the cells adversely | IC50 [5, 8]: 6880 ± 880 nM

Second part, led by results:

NanoBit eIF4E:4G (IC50, μM) ([3]; PC3 cells, 4E-BP1 protein levels high): No Inhibition | NanoBit eIF4E:4G (IC50, μM) ([4]; 4E-BP1 protein levels low): No Inhibition
SMILES: Nc1ncnc2n[nH]c(Nc3ccc(F)cc3)c12 [CGP57380]
Effect on cell viability (PC-3 cells): no decrease in the luminescence signal or decrease in cell viability | Decrease in ability to prevent phosphorylation of eIF4E, PANC1 versus PC-3 ([1]; PANC1 cells compared with PC-3): twofold | IC50 ([1]; PANC cells, 4E-BP1 protein levels low, normalised to GAPDH, read-out: pEIF4E SureFire (IC50)): 6200 ± 1300 nM | IC50 [2]: 3000 ± 1700 nM | Activity in NanoBit system [3]: no decrease in the luminescence signal | Effect on NanoBit luminescence signal in combination with Ipasertib versus Ipasertib alone ([5]; HEK293, CGP57380 at constant concentrations, 4 h): did not lead to a larger decrease of the luminescence signal

IC50 ([5]; HEK293, 4 h, read-out: apparent IC50, NanoBit eIF4E:eIF4G^604–646 signal): 8 ± 0.7 nM
SMILES: Cn1c(=O)n(-c2ccc(C(C)(C)C#N)cc2)c2c3cc(-c4cnc5ccccc5c4)ccc3ncc21 [BEZ235]
Effect of siRNA 4EBP1 knockdown on activity ([3]; PC3 cells, si4EBP1 versus siCtrl): strongly attenuated | Activity in NanoBit system [3]: mid-nanomolar range | Activity in NanoBit system ([4]; 4 h): dramatically attenuated | Attenuation of potency by siRNA-mediated knockdown of 4EBP1 ([5]; HEK293, si4EBP1 versus siCtrl): substantially reduced | Extent of disruption of NanoBit signal / eIF4F complex [5]: achieved maximal inhibition of eIF4F activity | Decrease in potency on overexpression of GFP-MYC ([5]; HEK293 co-transfected with GFP-MYC versus GFP control): over an order of magnitude

IC50 [5, 8]: 2600 ± 1800 nM
SMILES: O=C(Nc1ccc2[nH]nc(-c3ccncc3)c2c1)[C@@H]1CCN(CC(=O)N2CCN(c3ccc(-c4ncccn4)cc3)CC2)C1 [SCH772984]
Effect on eIF4F disruption in combination with Ipasertib titration ([5]; HEK293, SCH-772984 constant at 1 μM): additive effect
